# Experiments:
# rat [1] = conditions: Subchronic oral toxicity in rodents, sprague dawley, Gavage/Intubation, dose end: 90 day, group: systemic
# mouse [2] = conditions: Carcinogenicity; cd1; Oral; Feed; dose end: 18 month; group: systemic; systemic / in life observation / body weight / body weight
# rat [3] = conditions: Combined chronic toxicity/carcinogenicity, sprague dawley, Oral, Feed, dose end: 104 week, group: systemic
# rat [4] = conditions: Subchronic oral toxicity in rodents, sprague-dawley, Gavage/Intubation, dose end: 90 day, group: systemic, systemic / in life observation / body weight / body weight gain + systemic / in life observation / clinical signs / exophthalamus + systemic…
# rabbit = conditions: Prenatal developmental toxicity study, new zealand white, Oral, Gavage/Intubation, dose end: 18 GD
# mouse [5] = conditions: Carcinogenicity; cd1; Oral; Feed; dose end: 78 week; group: systemic; systemic / in life observation / body weight / body weight + systemic / in life observation / body weight / body weight gain
# rat [6] = conditions: Combined chronic toxicity/carcinogenicity, sprague dawley, Oral, Feed, dose end: 24 month, group: systemic
# dog = conditions: Chronic toxicity, beagle, Oral, Feed, dose end: 52 week, group: systemic
# mouse [7] = conditions: Sub-acute repeat dose toxicity; b6c3f1; Oral; Gavage/Intubation; dose end: 14 day; group: systemic; systemic / in life observation / clinical signs / distended abdomens + systemic / in life observation / clinical signs / fur (altered …
# rat [8] = conditions: Subchronic oral toxicity in rodents, sprague dawley, Gavage/Intubation, dose end: 90 day, group: systemic, systemic / in life observation / body weight / body weight + systemic / in life observation / body weight / body weight gain
# rat [9] = conditions: Subchronic dermal toxicity, sprague dawley, Topical, dose end: 90 day, group: systemic, systemic / pathology microscopic / liver / hypertrophy
# rat [10] = conditions: Prenatal developmental toxicity study, sprague dawley, Oral, Gavage/Intubation, dose end: 15 GD
# rat [11] = conditions: Subchronic oral toxicity in rodents, sprague dawley, Gavage/Intubation, dose end: 13 week, group: systemic, systemic / pathology microscopic / adrenal gland / congestion + systemic / pathology microscopic / brain / congestion + systemic / pathology…
# mouse [12] = conditions: Subchronic oral toxicity in rodents, b6c3f1, Feed, dose end: 13 week, group: systemic
# mouse [13] = conditions: Carcinogenicity, b6c3f1, Oral, Feed, dose end: 105 week, group: systemic
# rat [14] = conditions: Subchronic oral toxicity in rodents, fischer, Feed, dose end: 13 week
# [15] = systemic / in life observation / body weight / body weight + systemic / organ weight / liver / absolute + systemic / organ weight / liver / …
# [16] = systemic / in life observation / body weight / body weight + systemic / in life observation / body weight / body weight gain
# [17] = systemic / in life observation / body weight / body weight + systemic / in life observation / body weight / body weight gain + systemic / …
# [18] = group: developmental, developmental / developmental malformation / bone / supernumerary
# [19] = group: developmental, developmental / developmental malformation / bone / supernumerary + developmental / developmental malformation / bone / short supernumerary…
# [20] = group: maternal, systemic / in life observation / body weight / body weight gain + systemic / in life observation / food consumption / food consumption
# [21] = systemic / clinical chemistry / aspartate aminotransferase (ast/sgot) / aspartate aminotransferase (ast/sgot)
# [22] = systemic / in life observation / mortality / mortality + systemic / pathology gross / mammary gland / cyst + systemic / pathology gross / …
# [23] = systemic / in life observation / clinical signs / feces, discoloration
# [24] = systemic / organ weight / adrenal gland / absolute + systemic / organ weight / adrenal gland / relative to body weight + systemic / organ …
# [25] = group: developmental, developmental / developmental malformation / bone / [other] + systemic / in life observation / body weight / fetal weight
# [26] = group: maternal, systemic / in life observation / body weight / body weight gain + systemic / in life observation / food consumption / food consumption + …
# [27] = systemic / in life observation / body weight / body weight + systemic / hematology / reticulocyte / reticulocyte
# [28] = group: developmental, developmental / offspring survival late / [other] / [other]
# [29] = group: maternal, reproductive / offspring survival early / birth index / birth index
# [30] = group: maternal, reproductive / reproductive performance / estrous cycle / length
# [31] = group: systemic, systemic / pathology microscopic / spleen / hemosiderosis + systemic / in life observation / clinical signs / fur (altered appearance)
smiles,measurement,setting,value
"CC1(C)NC(=O)NC1=O [5,5-Dimethylhydantoin]",LEL,rat [1]; [15],1020 mg/kg/day
same,LOAEL,rat [1]; [15],1020 mg/kg/day
same,NOAEL,rat [1]; [15],303 mg/kg/day
same,NEL,rat [1]; systemic / organ weight / kidney / absolute + systemic / organ weight / liver / absolute + systemic / organ weight / liver / relative to …,303 mg/kg/day
same,LEL,mouse [2],321 mg/kg/day
same,LOAEL,mouse [2],> 1010 mg/kg/day
same,NEL,mouse [2],101 mg/kg/day
same,NOAEL,mouse [2],≥ 1010 mg/kg/day
same,NEL,rat [3]; [16],300 mg/kg/day
same,NOAEL,rat [3]; [16],300 mg/kg/day
same,LEL,rat [3]; [17],1000 mg/kg/day
same,LOAEL,rat [3]; [17],1000 mg/kg/day
same,LEL,rat [4],1050 mg/kg/day
same,LOAEL,rat [4],> 1050 mg/kg/day
same,NEL,rat [4],100 mg/kg/day
same,NOAEL,rat [4],≥ 1050 mg/kg/day
same,LEL,rabbit; [18],500 mg/kg/day
same,LOAEL,rabbit; [18],500 mg/kg/day
same,NEL,rabbit; [19],100 mg/kg/day
same,NOAEL,rabbit; [19],100 mg/kg/day
same,LEL,rabbit; [20],1000 mg/kg/day
same,LOAEL,rabbit; [20],1000 mg/kg/day
same,NEL,rabbit; [20],500 mg/kg/day
same,NOAEL,rabbit; [20],500 mg/kg/day
same,LEL,mouse [5],1000 mg/kg/day
same,LOAEL,mouse [5],1000 mg/kg/day
same,NEL,mouse [5],300 mg/kg/day
same,NOAEL,mouse [5],300 mg/kg/day
same,LEL,rat [6]; [21],100 mg/kg/day
same,NEL,rat [6]; [21],< 100 mg/kg/day
same,LOAEL,rat [6]; [22],1000 mg/kg/day
same,NOAEL,rat [6]; [22],320 mg/kg/day
same,LEL,dog; [23],120 mg/kg/day
same,NEL,dog; [23],< 120 mg/kg/day
same,LOAEL,dog; [24],1510 mg/kg/day
same,NOAEL,dog; [24],342 mg/kg/day
O=C(O)c1ccccc1 [Benzoic acid],LEL,mouse [7],642 mg/kg/day
same,LOAEL,mouse [7],> 642 mg/kg/day
same,NEL,mouse [7],321 mg/kg/day
same,NOAEL,mouse [7],≥ 642 mg/kg/day
CC(=O)N(CCN(C(C)=O)C(C)=O)C(C)=O [Tetraacetylethylenediamine],LEL,rat [8],25 mg/kg/day
same,LOAEL,rat [8],25 mg/kg/day
same,NEL,rat [8],< 25 mg/kg/day
same,NOAEL,rat [8],< 25 mg/kg/day
same,LEL,rat [9],2000 mg/kg/day
same,LOAEL,rat [9],> 2000 mg/kg/day
same,NEL,rat [9],200 mg/kg/day
same,NOAEL,rat [9],≥ 2000 mg/kg/day
same,LEL,rat [10]; [25],1000 mg/kg/day
same,LOAEL,rat [10]; [25],1000 mg/kg/day
same,NEL,rat [10]; [25],200 mg/kg/day
same,NOAEL,rat [10]; [25],200 mg/kg/day
same,LEL,rat [10]; [20],200 mg/kg/day
same,LOAEL,rat [10]; [20],200 mg/kg/day
same,NEL,rat [10]; [26],40 mg/kg/day
same,NOAEL,rat [10]; [26],40 mg/kg/day
ClNc1nc(NCl)nc(NCl)n1 [Trichloromelamine],LEL,rat [11],150 mg/kg/day
same,LOAEL,rat [11],150 mg/kg/day
same,NEL,rat [11],30 mg/kg/day
same,NOAEL,rat [11],30 mg/kg/day
CC(C)(C)c1cc(O)ccc1O [tert-Butylhydroquinone],LOAEL,mouse [12]; [16],1950 mg/kg/day
same,LEL,mouse [12]; [17],1950 mg/kg/day
same,NEL,mouse [12]; [17],880 mg/kg/day
same,NOAEL,mouse [12]; [17],880 mg/kg/day
same,LOAEL,mouse [13]; systemic / in life observation / body weight / body weight,600 mg/kg/day
same,LEL,mouse [13]; [27],600 mg/kg/day
same,NEL,mouse [13]; [27],300 mg/kg/day
same,NOAEL,mouse [13]; [27],300 mg/kg/day
same,LEL,rat [14]; [28],750 mg/kg/day
same,NEL,rat [14]; [28],400 mg/kg/day
same,LOAEL,rat [14]; [29],1000 mg/kg/day
same,NOAEL,rat [14]; [29],500 mg/kg/day
same,LEL,rat [14]; [30],200 mg/kg/day
same,NEL,rat [14]; [30],< 200 mg/kg/day
same,LOAEL,"rat [14]; group: systemic, systemic / in life observation / body weight / body weight + systemic / in life observation / body weight / offspring (pup) weight",400 mg/kg/day
same,NOAEL,"rat [14]; group: systemic, systemic / in life observation / body weight / body weight + systemic / in life observation / body weight / offspring (pup) weight + …",200 mg/kg/day
same,LEL,rat [14]; [31],200 mg/kg/day
same,NEL,rat [14]; [31],< 200 mg/kg/day
